Measured values: patent publication US8895509B2, “MIR-200 family induces mesenchymal-to-epithelial transition (MET) in ovarian cancer cells” (Georgia Tech Research Corporation, priority 2010, dated 2014)

Tested on: HEY cells
Assay: microarray profiling (Affymetrix HG-U133 Plus 2.0) of miR-429 transfected HEY cells
Assay type: cell-based, human
Details: for Fold-change: miR-429 transfected HEY cells
Experimental: 6×10^4 cells per well were seeded in 24-well plates. After 24 h, cells were transfected with 30 nM of miR-429 and miR-320 miRNA oligonucleotides (Ambion, Austin, Tex.) using Lipofectamine 2000 reagent (Invitrogen, Carlsbad, Calif.). The Ambion Pre-miRNA Precursor Negative Control was used as a control. Three days after transfection, cells were split and transfected again. This process was repeated every 3 days until 21 days when cells were assayed for response.
Microarray analyses were performed using the Affymetrix system (HG-U133 Plus 2.0; Santa Clara, Calif.) as previously described [Bowen et al., BMC Med Genomics 2009, 2:71]. Briefly, the expression data were analyzed using MAS 5.0 Statistical Algorithm encoded in the Affymetrix Expression Console application. The expression values were normalized across samples by Z-score calculation using Spotfire Decision Site software. […] Gene enrichment analyses were carried out using GeneGO (http://www.genego.com/) gene ontology software.

Substance: miR-429: miR-200 family member; mature miRNA UAAUACUGUCUGGUAAAACCGU (SEQ ID NO: 6); miRNA oligonucleotide (Ambion) transfected at 30 nM (listed as RNA, chemistry not given here; listed as Homo sapiens) [miR-200 family member; miRNA oligonucleotide (Ambion) transfected at 30 nM]
- Fold change (miR-429 transfected HEY cells relative to negative controls) (gene AARS): −2.57
- Fold change (miR-429 transfected HEY cells relative to negative controls) (gene ABCF2): −3.48
- Fold change (miR-429 transfected HEY cells relative to negative controls) (gene ALDH1L2): −11.31
- Fold change (miR-429 transfected HEY cells relative to negative controls) (gene ANK2): −3.58
- Fold change (miR-429 transfected HEY cells relative to negative controls) (gene ANKRD23): −7.62
- Fold change (miR-429 transfected HEY cells relative to negative controls) (gene ASAM): −3.48
- Fold change (miR-429 transfected HEY cells relative to negative controls) (gene ASNS): −6.82
- Fold-change (gene B3GALNT2): −2.16
- Fold change (miR-429 transfected HEY cells relative to negative controls) (gene BCHE): −2.93
- Fold change (miR-429 transfected HEY cells relative to negative controls) (gene C6orf105): −2.48
- Fold change (miR-429 transfected HEY cells relative to negative controls) (gene C11orf57): −2.41
- Fold change (miR-429 transfected HEY cells relative to negative controls) (gene C12orf39): −10.06
- Fold change (miR-429 transfected HEY cells relative to negative controls) (gene C12orf55): −6.06
- Fold change (miR-429 transfected HEY cells relative to negative controls) (gene C17orf51): −3.46
- change in expression by microarray (gene CAV2 (epithelial marker)): up-regulated
- Fold change (miR-429 transfected HEY cells relative to negative controls) (gene CBS): −2.68
- Fold change (miR-429 transfected HEY cells relative to negative controls) (gene CCDC148): −3.39
- Fold change (miR-429 transfected HEY cells relative to negative controls) (gene CCDC152): −3.10
- Fold change (miR-429 transfected HEY cells relative to negative controls) (gene CCND2): −4.03
- Fold change (miR-429 transfected HEY cells relative to negative controls) (gene CCNJ): −2.45
- Fold change (miR-429 transfected HEY cells relative to negative controls) (gene CDC42EP1): −3.48
- Fold change (miR-429 transfected HEY cells relative to negative controls) (gene CDKAL1): −2.64
- Fold change (miR-429 transfected HEY cells relative to negative controls) (gene CDO1): −13.45
- Fold-change (gene CFL2): −1.75
- Fold change (miR-429 transfected HEY cells relative to negative controls) (gene CHST10): −4.03
- Fold change (miR-429 transfected HEY cells relative to negative controls) (gene CLGN): −2.79
- Fold change (miR-429 transfected HEY cells relative to negative controls) (gene COLEC12): −16.11
- Fold change (miR-429 transfected HEY cells relative to negative controls) (gene CXCL3): −2.57
- Fold change (miR-429 transfected HEY cells relative to negative controls) (gene CYCS): −2.73
- Fold change (miR-429 transfected HEY cells relative to negative controls) (gene DDR2): −2.68
- Fold-change (gene DNAJB4): −1.53
- Fold-change (gene DPY19L1): −1.64
- change in expression by microarray (gene DSP (epithelial marker)): up-regulated
- Fold-change (gene EIF2B5): −2.10
- change in expression by microarray (gene EPCAM (epithelial marker)): up-regulated
- Fold change (miR-429 transfected HEY cells relative to negative controls) (gene EPHB1): −4.06
- Fold change (miR-429 transfected HEY cells relative to negative controls) (gene ERN1): −3.51
- Fold change (miR-429 transfected HEY cells relative to negative controls) (gene EXOSC6): −2.87
- Fold change (miR-429 transfected HEY cells relative to negative controls) (gene F2RL2): −5.35
- Fold change (miR-429 transfected HEY cells relative to negative controls) (gene FLJ34077): −2.73
- Fold change (miR-429 transfected HEY cells relative to negative controls) (gene FOXP3): −3.76
- Fold change (miR-429 transfected HEY cells relative to negative controls) (gene GALNT12): −2.39
- Fold change (miR-429 transfected HEY cells relative to negative controls) (gene GART): −3.94
- Fold change (miR-429 transfected HEY cells relative to negative controls) (gene GAS7): −12.55
- Fold change (miR-429 transfected HEY cells relative to negative controls) (gene GLIPR1): −2.73
- Fold change (miR-429 transfected HEY cells relative to negative controls) (gene GLT8D2): −4.76
- Fold change (miR-429 transfected HEY cells relative to negative controls) (gene GPATCH4): −2.87
- Fold-change (gene GREM1): −2.10
- Fold change (miR-429 transfected HEY cells relative to negative controls) (gene GRK4): −3.14
- Fold change (miR-429 transfected HEY cells relative to negative controls) (gene HIF3A): −3.12
- Fold change (miR-429 transfected HEY cells relative to negative controls) (gene HORMAD1): −10.48
- Fold change (miR-429 transfected HEY cells relative to negative controls) (gene HS6ST3): −2.64
- Fold change (miR-429 transfected HEY cells relative to negative controls) (gene HSPA9): −2.48
- Fold change (miR-429 transfected HEY cells relative to negative controls) (gene INTS4): −2.81
- Fold change (miR-429 transfected HEY cells relative to negative controls) (gene JDP2): −3.46
- Fold change (miR-429 transfected HEY cells relative to negative controls) (gene KIAA1853): −3.32
- Fold change (miR-429 transfected HEY cells relative to negative controls) (gene KLHL13): −2.57
- Fold-change (gene LDLRAD3): −1.74
- Fold change (miR-429 transfected HEY cells relative to negative controls) (gene LMO4): −3.14
- Fold change (miR-429 transfected HEY cells relative to negative controls) (gene LOC148189): −2.69
- Fold change (miR-429 transfected HEY cells relative to negative controls) (gene LOC148987): −3.07
